This is an account of results in patent publication US11999770B2, “Peptides and nanoparticle formulations thereof” (University of Bradford, priority 2016, dated 2024).

Data set [1] concerns MDA-MB-231 cells. In words: Cytotoxicity / cell viability (MTT assay). It is filed as cell-based, human. The settings on record: for activity against the proliferation of MDA MB-231 triple negative breast cancer cells: dosed as nanoparticles. The method, then:
Cytotoxicity of an optimised peptide NP formulation (F18) containing peptide of SEQ ID NO: 5 was measured by assessing cell viability (MTT assay). The MDA-MB-231 cells were seeded in 24-well plates (Nalgen Nunc International, Ochester, NY) at a density of 5×10^4 cells per well and incubated for 24 hours to allow for 60-70% confluency and sufficient adhesion. The cells were treated with different concentrations of the peptide-loaded NP, free peptide (SEQ ID NO: 5) and blank NP. After 24, 48, 72 and 96 hours, the treated cells were washed with 500 μl PBS, and 500 μl of 15% MTT dye solution in complete media added to each well. The plates were incubated at 37° C. and 5% CO2 for an additional 3 hours. The supernatant was then discarded, 500 μl DMSO added and the solution vigorously mixed. The optical density of each well was measured at 570 nm (reference wavelength 630 nm) in a microplate reader (Fluostar Omega, BMG Lab Tech GMBH, Germany). This experiment was performed in triplicate and repeated three times. Mean values±SD for each concentration was determined. Percentage cell viability was determined as the ratio of absorbance (570 nm) in treated cells relative to the absorbance in control cells (570 nm). The absorbance of the untreated cells was set at 100%. The IC50 was defined as the concentration of sample needed to reduce the signal by 50% relative to the control.

Data set [2] deals with A549 lung cancer cells. Nature of the data set: A549 lung cancer cell viability. The data set is classed as cell-based, human. The settings on record: dosed as nanoparticles.
Data set [3] deals with MDA-MB-231 cells. In words: Cell cycle analysis (PI flow cytometry). It is filed as cell-based, human. The method, then:
To determine the effect of peptide (SEQ ID NO: 5)-loaded NP on cell growth, cultured cells were treated with the same doses of free peptide and peptide-loaded NP as used in the cell viability assay. After 24 and 48 hours of treatment, cells were suspended in PBS and fixed by addition of 70% ice-cold methanol. Cells were treated by adding RNase (1.0 μg ml^−1) to the samples and re-suspending in propidium iodide (PI) stain (5.0 μg ml^−1). PI fluorescence intensity was determined using flow cytometry through a FL-2A filter at 585 nm. Flow-cytometric data were analysed using Cyflogic (v.1.2.1) software. Quantification of apoptotic cells was determined by flow cytometry as the percentage of cells in the sub-G1 region (hypodiploidy) in cell cycle analysis as previously described [PLoS ONE, 6 (2011) e23640].

For data set [4], the system named is MDA-MB231 invasion. In words: MDA-MB231 invasion. Conditions: loaded nanoparticles. It is filed as cell-based, human.
In data set [5] the test system is MDA-MB231 migration. Nature of the data set: MDA-MB231 migration. The data set is classed as cell-based, human. The settings on record: loaded nanoparticles.
Data set [6] concerns the target T1, RanGDP-RCC1 protein-protein interaction (Homo sapiens, UniProt P18754).
T1 construct: endogenous in cells; host or cells: MDA MB-231 cell lysate
T1 sequence (P18754 2-421 limits assumed): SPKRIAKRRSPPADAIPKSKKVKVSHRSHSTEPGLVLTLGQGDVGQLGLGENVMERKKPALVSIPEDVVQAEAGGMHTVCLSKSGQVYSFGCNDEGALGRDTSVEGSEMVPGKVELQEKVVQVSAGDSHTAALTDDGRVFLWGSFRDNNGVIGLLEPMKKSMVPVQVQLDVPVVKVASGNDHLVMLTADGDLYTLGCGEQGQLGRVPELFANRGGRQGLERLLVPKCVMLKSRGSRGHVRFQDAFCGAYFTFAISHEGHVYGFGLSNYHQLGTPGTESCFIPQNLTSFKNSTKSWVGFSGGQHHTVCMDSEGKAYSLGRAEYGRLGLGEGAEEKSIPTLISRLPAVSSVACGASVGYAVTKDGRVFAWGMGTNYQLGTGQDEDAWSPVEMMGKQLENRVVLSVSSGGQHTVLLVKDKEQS
In words: Ran activation assay (MDA MB-231 cell lysate, RanBP1 agarose beads). It is filed as biochemical. The protocol: Lane 1 is positive control for activated Ran complex & Lane 2, MDA MB-231 cell lysate, Lane 3 MDA MB-231 cell lysate loaded with GDP and incubated (negative control) with RanBP1 Agarose beads. Lane 4, MDA MB-231 cell lysate loaded with GTPyS (positive control) incubated with RanBP1 Agarose beads. Lane 5, MDA MB231 cell lysate treated by N-Terminal peptide, Lane 6, MDA MB-231 cell lysate loaded with GD and treated with N-terminal peptide SEQ ID NO: 5, Lane 7, MDA MB231 cell lysate loaded with GTPyS and treated with N-terminal peptide SEQ ID NO: 5 incubated with RanBP1 Agarose beads. […] It can therefore be seen that the N-terminal peptide SEQ ID NO: 5 disturbs the interaction between Ran-RCC1 by direct binding to RCC1.
In this figure, Lane 1 is positive control (activated Ran protein); Lane 2, MDA MB-231 cell lysate; Lane 3 MDA MB-231 cell lysate loaded with GDP and incubated (negative control) with RanBP1 Agarose beads; Lane 4, MDA MB-231 cell lysate loaded with GTPyS (positive control) incubated with RanBP1 Agarose beads; Lane 5, MDA MB-231 cell lysate treated by peptide of SEQ ID 5; Lane 6, MDA MB-231 cell lysate loaded with GD and treated with peptide of SEQ ID 5; and Lane 7, MDA MB-231 cell lysate loaded with GTPyS and treated with peptide of SEQ ID 5 incubated with RanBP1 Agarose beads.

Data set [7] has as its target T2, RanGDP-RCC1 protein-protein interaction (Homo sapiens, UniProt P18754).
T2 sequence (P18754 1-421): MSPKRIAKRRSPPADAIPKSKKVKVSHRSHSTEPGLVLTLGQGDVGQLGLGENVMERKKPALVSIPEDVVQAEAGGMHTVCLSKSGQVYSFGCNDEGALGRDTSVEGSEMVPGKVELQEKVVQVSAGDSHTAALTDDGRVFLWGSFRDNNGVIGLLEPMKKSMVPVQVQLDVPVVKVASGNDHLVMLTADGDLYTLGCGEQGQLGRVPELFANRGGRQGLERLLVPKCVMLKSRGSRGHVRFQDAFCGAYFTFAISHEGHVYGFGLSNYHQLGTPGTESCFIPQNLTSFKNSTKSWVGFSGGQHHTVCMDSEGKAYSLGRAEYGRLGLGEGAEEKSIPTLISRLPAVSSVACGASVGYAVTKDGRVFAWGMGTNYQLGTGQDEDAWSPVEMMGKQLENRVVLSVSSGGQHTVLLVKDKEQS
Nature of the data set: AlphaScreen assay. The data set is classed as binding. Conditions: in the absence of GTP. From the text:
The direct effect of the inhibitor of SEQ ID NO: 5 on the RanGDP-RCC1 interaction was also studied by AlphaScreen™ assay. This assay employs bead-based chemistry used to study biomolecular interactions in a microplate format, the acronym ALPHA stands for Amplified Luminescent Proximity Homogeneous Assay. In brief, the system uses two photosensitive bead types, a first donor bead that can absorb light from an external light source and a second acceptor bead that can first absorb energy from the donor bead if the beads are in close proximity and then in turn emit light. The Ran protein was attached to the donor bead and the RCC1 protein was attached to the acceptor bead. In the absence of peptide inhibitor the interaction of Ran and RCC1 hold the beads in close proximity and the emission from the acceptor bead is detectable.

Data set [8] is described as follows: Isoelectric point of the peptide. The data set is classed as physicochemical.

In the case of “CVDIKDRKVKAKS [SEQ ID NO: 6, Ran positions 124 to 135 with N-terminal Cys]”, the “activity against the proliferation of MDA MB-231 triple negative breast cancer cells” value in data set [1] is given as “significant activity”. Further, the “activity against the proliferation of A549 lung cancer cells” value (shortened to “activity … of A549 lung cancer cells”) in data set [2] is “significant activity”.
Regarding “CQYEHDLEVAQTTALP [SEQ ID NO: 7, Ran positions 196 to 210 with N-terminal Cys]”, the “activity against the proliferation of MDA MB-231 triple negative breast cancer cells” value in data set [1] is given as “significant activity”. Besides, the “activity … of A549 lung cancer cells” value in data set [2] was “significant activity”.
On to CAQGEPQVQFK [SEQ ID NO: 5], for which, in data set [1] (2, 4 and 8 μM, 24, 48, 72 and 96 hours), the “cytotoxic action (cell viability)” value was “no significant cytotoxicity”. Besides, the “activity against the proliferation of MDA MB-231 triple negative breast cancer cells” value in data set [1] is “significant activity”. In data set [3], the “growth rate of the cells” value is recorded as “not affected”. In data set [2], the “activity … of A549 lung cancer cells” value is recorded as “significant activity”. In data set [4], the “effect on MDA-MB231 invasion” value is on record as “inhibitory effect”. The “effect on MDA-MB231 migration” value in data set [5] is on record as “inhibitory effect”. The “effect on Ran-GDP/RCC1 interaction (activated Ran pull-down)” value in data set [6] was “disturbs the interaction between Ran-GDP and RCC1”. Besides, the “inhibition of complex formation” value in data set [7] is on record as 45%. In addition, the “isoelectric point (pI)” value in data set [8] is reported as “around 6.0”.
